For one compound, stability results are on record in patent US8513202B2, “Crystalline form of 1-(β-D-glucopyranosyl)-4-methyl-3-[5-(4-fluorophenyl)-2-thienylmethyl]benzene hemihydrate” (Mitsubishi Tanabe Pharma Corporation, priority 2006, dated 2013).

Each structure is given as a SMILES string.

The series can be described thus: stability of the crystalline form compared with the amorphous form. To be noted: compared with the amorphous form of the compound of formula (I); test conditions not given. The format is physicochemical.

Take `Cc1ccc([C@@H]2O[C@H](CO)[C@@H](O)[C@H](O)[C@H]2O)cc1Cc1ccc(-c2ccc(F)cc2)s1` [1-(β-D-glucopyranosyl)-4-methyl-3-[5-(4-fluorophenyl)-2-thienylmethyl]benzene hemihydrate]: the stability entry is reported as “more stable than the amorphous form”.
